Consider ten compounds from patent publication US20070135383A1, “Phospholipase inhibitors, including multi-valent phospholipase inhibitors, and use thereof, including as lumen-localized phospholipase inhibitors” (priority 2005, published 2007).

Series [1] deals with T1, porcine group 1B PLA2 (pps PLA2) (Sus scrofa, UniProt P00592).
T1 construct: purchased
Kind of series: Fluorimetric PPyrPM assay for group 1B PLA2 inhibition (Example 12). The format is biochemical. The source says: (§1) In this example, a fluorimetric assay procedure was used to evaluate the indole and indole-related compounds of the invention as inhibitors of group 1B phospholipase A2 (PLA2) from human, mouse and porcine. A description of this assay is found in articles: Leslie, C C and Gelb, M H (2004) Methods in Molecular Biology “Assaying phospholipase A2 activity”, 284:229-242; Singer, A G, et al. (2002) Journal of Biological Chemistry “Interfacial kinetic and binding properties of the complete set of human and mouse groups I, II, V, X, and XII secreted phospholipases A2”, 277:48535-48549, which are incorporated herein as references.
(§2) In general, this assay used a phosphatidylmethanol substrate with a pyrene fluorophore on the terminal end of the sn-2 fatty acyl chain. Without being bound by theory, close proximity of the pyrenes from neighboring phospholipids in a phospholipid vesicle caused the spectral properties to change relative to that of monomeric pyrene. Bovine serum albumin was present in the aqueous phase and captured the pyrene fatty acid when it is liberated from the glycerol backbone owing to the PLA2-catalyzed reaction. However, a potent inhibitor can inhibit the liberation of pyrene fatty acid from the glycerol backbone. […] The effect of a given inhibitor and inhibitor concentration on human, mouse and porcine phospholipase was determined.
(§3) The following reagents and equipments were obtained from commercial vendors: • 1. Porcine group 1B phospholipase A2 • 2. 1-hexadecanoyl-2-(1-pyrenedecanoyl)-sn-glycero-3-phosphomethanol (PPyrPM) • 3. Bovine serum albumin (BSA, fatty acid free) • 4. 2-Amino-2-(hydroxymethyl)-1,3-propanediol, hydrochloride (Tris-HCl) • 5. Calcium chloride • 6. Potassium chloride • 7. Solvents: DMSO, toluene, isopropanol, ethanol • 8. Molecular Devices SPECTRAmax microplate spectrofluorometer • 9. Costar 96 well black wall/clear bottom plate
(§4) The following reagents were prepared: • 10. PPyrPM stock solution (1 mg/ml) in toluene:isopropanol (1:1) • 11. ILY104 inhibitor stock solution (10 mM) in DMSO • 12. 3% (w/v) bovine serum albumin (BSA) • 13. Stock buffer: 50 mM Tris-HCl, pH 8.0, 50 mM KCl and 1 mM CaCl2
The following procedure was performed to evaluate the inhibitory potency of the evaluated compounds. • 14. An assay buffer was prepared by adding 3 ml 3% BSA to 47 ml stock buffer. • 15. Solution A was prepared by adding serially diluted inhibitors to the assay buffer. Inhibitors were three-fold diluted in stock buffer in a series of 8 from 15 uM. • 16. Solution B was prepared by adding human, mouse or porcine PLA2 to the assay buffer. This solution was prepared immediately before use to minimize enzyme activity loss. • 17. Solution C was prepared by adding 30 ul PPyrPM stock solution to 90 ul ethanol, and then all 120 ul of PPyrPM solution was transferred drop-wise over approximately 1 min to the continuously stirring 8.82 ml assay buffer to form a final concentration of 4.2 uM PPyrPM vesicle solution. • 18. The SPECTRAmax microplate spectrofluorometer was set at 37° C. • 19. 100 ul of solution A was added to each inhibition assay well of a costar 96 well black wall/clear bottom plate • 20. 100 ul of solution B was added to each inhibition assay well of a costar 96 well black wall/clear bottom plate. • 21. 100 ul of solution C was added to each inhibition assay well of a costar 96 well black wall/clear bottom plate. • 22. The plate was incubated inside the spectrofluorometer chamber for 3 min. • 23. The fluorescence was read using an excitation of 342 nm and an emission of 395 nm.
Evaluated compounds were tested in duplicate and their values were averaged to plot the inhibition curve and calculate the IC50. Compared to uninhibited controls, lower fluorescent signal at an emission of 395 nm in test reactions evidenced inhibition of PLA2. […] Compounds initially found to be active were repeated to confirm their inhibitory activity. […]

The nature of series [2]: Mouse pharmacokinetic study, IV vs oral (Example 18). The note with it: PO 30 mg/kg vs IV 3 mg/kg, serum by LC/MS/MS; for bioavailability: male, CD-1, mouse. Type of series: in vivo, male CD-1 mice. The protocol:
The plasma exposure of male CD-1 mice to indole and indole-related test articles (TAs) following intravenous (IV, 3 mg/kg) and oral (PO, 30 mg/kg) routes of administration was measured. This model was used to investigate the bioavailability of indole and indole-related TAs in mouse. Mice were selected for the study since they are an accepted species frequently used in pre-clinical evaluation of drugs intended for human use.
Male CD-1 mice (7-8 weeks old) were obtained from Charles River Laboratories (Wilmington, Mass.). Two groups (N=18 and 27) of male CD-1 mice were used for the study. Upon arrival, the animals were placed on Rodent Diet 5001 (Purina Mills, Inc., St. Louis, Mo.).
On study day (−1), indole and indole-related TAs were formulated for oral or IV dosing by mixing the formulation components with test article in the proportions described in Table 10.1. The components were mixed by vortexing and sonicating in a warming bath for 60 minutes. Animals were fasted overnight prior to start of the study. On study day (1), formulations were sonicated for an hour to make sure that no visible particles were present prior to dosing, or if present were evenly distributed in suspension. Formulated test article were stirred continuously during dosing.
All animals were weighed on study day (1) and the body weights were recorded and used for dose calculation. The animals were dosed by either PO or IV route as outlined in Table 10.2. Blood samples (0.5 mL) were collected at specified time intervals into labeled, yellow-capped Microtainer tubes. The tubes were centrifuged (8,000×g, 10 min). Serum was then pipetted off into labeled Eppendorf® tubes and frozen at −80° C. Clinical observations were recorded as needed.
Analysis of serum samples was performed by LC/MS/MS (Waters Quattro Premier, Milford, Mass.). Areas under curves (AUC) were calculated using Graphpad Prism Version 4. Bioavailability was calculated using the following equation: (Bioavailability)=(AUC0-t,oral/AUC0-t,iv)×(Doseiv/Doseoral)×100
where AUC0-t=total area under curve at the last measurable time point

Series [3] addresses T2, mouse group 1B PLA2 (mps PLA2) (Mus musculus, UniProt Q9Z0Y2).
T2 construct: made in house; host or cells: E. coli
Kind of series: Fluorimetric PPyrPM assay for group 1B PLA2 inhibition (Example 12). Type of series: biochemical.
From the text: as §1, §2
(§5) Recombinant human and mouse group 1B PLA2 were cloned and expressed in E. coli as insoluble inclusion bodies. The inclusion bodies were isolated and purified by sonicating cell pellet in lysis buffer (50 mM Tris-HCl pH 7.0, 250 mM NaCl, 0.5% Triton 100), centrifugation at 12,000×g, and washing three times in washing buffer (20 mM Tris-HCl pH 7.0, 250 mM NaCl, 0.5% Triton 100). Then the inclusion bodies were dissolved in dissolving buffer (50 mM Tris-HCl pH 7.0, 250 mM NaCl, 6 M Guanidine-HCl, 1 mM DTT) and dialyzed four times against 10 volumes of refolding buffer (20 mM Tris-HCl pH 7.0, 250 mM NaCl, 0.5M Guanidine-HCl, 5% (w/w) Glycerol, 2 mM reduced glutathione and 0.4 mM oxidized glutathione) at 4° C. The correctly refolded proteins were concentrated using Amicon Stirred cell under nitrogen pressure (<70 psi) and dialyzed against 10 volumes of 50 mM Tris-HCl pH 7.0, 250 mM NaCl and 5% (w/w) glycerol. Human and mouse group 1B PLA2 were further purified by High S ion exchange and gel filtration columns.
as §3, §4
(§6) The following procedure was performed to evaluate the inhibitory potency of the evaluated compounds. • 14. An assay buffer was prepared by adding 3 ml 3% BSA to 47 ml stock buffer. • 15. Solution A was prepared by adding serially diluted inhibitors to the assay buffer. Inhibitors were three-fold diluted in stock buffer in a series of 8 from 15 uM. • 16. Solution B was prepared by adding human, mouse or porcine PLA2 to the assay buffer. This solution was prepared immediately before use to minimize enzyme activity loss. • 17. Solution C was prepared by adding 30 ul PPyrPM stock solution to 90 ul ethanol, and then all 120 ul of PPyrPM solution was transferred drop-wise over approximately 1 min to the continuously stirring 8.82 ml assay buffer to form a final concentration of 4.2 uM PPyrPM vesicle solution. • 18. […]

Series [4] deals with T3, human group 1B PLA2 (hps PLA2) (Homo sapiens, UniProt P04054).
T3 construct: made in house; host or cells: E. coli
T3 sequence (P04054 23-148): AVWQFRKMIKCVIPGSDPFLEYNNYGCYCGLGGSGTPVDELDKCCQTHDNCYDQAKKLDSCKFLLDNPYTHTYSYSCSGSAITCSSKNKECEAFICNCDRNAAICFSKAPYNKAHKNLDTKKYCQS
The series is described as above. The format is biochemical.
From the text: as §1, §2, §5, §3, §4, §6

[5] abbreviates: porcine pancreas secreted PLA2, read-out: ILYPSA IC50 pps PLA2.
[6] abbreviates: mouse pancreas secreted PLA2, read-out: ILYPSA IC50 mps PLA2.
[7] abbreviates: human pancreas secreted PLA2, read-out: ILYPSA IC50 hps PLA2.

Read-outs that look alike come from different tables or passages of the source.

T1 sequence (P00592 23-146): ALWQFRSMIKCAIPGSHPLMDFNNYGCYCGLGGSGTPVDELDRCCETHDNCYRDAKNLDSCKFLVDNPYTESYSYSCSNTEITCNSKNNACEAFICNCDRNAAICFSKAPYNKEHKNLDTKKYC
T2 sequence (Q9Z0Y2 23-146): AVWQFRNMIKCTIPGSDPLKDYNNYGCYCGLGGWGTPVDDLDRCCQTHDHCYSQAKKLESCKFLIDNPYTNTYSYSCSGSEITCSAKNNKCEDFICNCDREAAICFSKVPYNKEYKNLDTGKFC

As for `Cc1c(C(=O)C(N)=O)c2c(OCC(=O)O)nccc2n1Cc1ccccc1` [ILY-II-1, (3-Aminooxalyl-1-benzyl-2-methyl-1H-pyrrolo[3,2-c]pyridin-4-yloxy)-acetic acid], the half-inhibitory concentration (IC50) in series [1] is 70 nM; in series [3] it was 230 nM; in series [4], 1150 nM. This compound showed a bioavailability in series [2] of 11%.
For `Cc1c(C(=O)C(N)=O)c2c(OCC(=O)NS(C)(=O)=O)nccc2n1Cc1ccccc1-c1ccccc1` [ILY-II-14, 2-(3-(2-amino-2-oxoacetyl)-1-(biphenyl-2-ylmethyl)-2-methyl-1H-pyrrolo[3,2-c]pyridin-4-yloxy)-N-(methylsulfonyl)acetamide] the same measures were 40 nM, 590 nM, 690 nM and 14.7%.
For `Cc1c(C(=O)C(N)=O)c2c(OCC(=O)NS(=O)(=O)CCCC(=O)O)cccc2n1Cc1ccccc1` [ILY-IV-40, 4-[2-(3-Aminooxalyl-1-benzyl-2-methyl-1H-indol-4-yloxy)-acetylsulfamoyl]-butyric acid], the “Bioavailability (%)” value in series [2] was 0.50%.
`Cc1c(C(=O)C(N)=O)c2c(OCC(=O)O)cccc2n1CCCCCCCCCCCCSCCCCCCCCSCCCCCCCCCCCCn1c(C)c(C(=O)C(N)=O)c2c(OCC(=O)O)cccc21` [ILY-V-26, 2,2′-(1,1′-(12,12′-(Octane-1,8-diylbis(sulfanediyl))bis(dodecane-12,1-diyl))bis(3-(2-amino-2-oxoacetyl)-2-methyl-1H-indole-4,1-diyl))bis(oxy)diacetic acid]: the IC50 in series [1] (setting [5]) was 260 nM; in series [3] (setting [6]) it was 340 nM; in series [4] (setting [7]), 240 nM. The compound further gave a bioavailability in series [2] of 0%.
`Cc1c(C(=O)C(N)=O)c2c(OCC(=O)O)cccc2n1CCCCCCCCCCCCN(CCCCCCCCCCCCn1c(C)c(C(=O)C(N)=O)c2c(OCC(=O)O)cccc21)Cc1ccccc1` [ILY-V-31, 2,2′-(1,1′-(12,12′-(benzylazanediyl)bis(dodecane-12,1-diyl))bis(3-(2-amino-2-oxoacetyl)-2-methyl-1H-indole-4,1-diyl))bis(oxy)diacetic acid]: the values for the IC50 in series [1] (setting [5]), in series [3] (setting [6]) and in series [4] (setting [7]) were 20 nM, 30 nM and 100 nM, respectively.
Turning to `Cc1c(C(=O)C(N)=O)c2c(O)cccc2n1CCCCCCCCCCCCSCCCCCCCCCCCCn1c(C)c(C(=O)C(N)=O)c2c(O)cccc21` [ILY-V-35], the half-inhibitory concentration (IC50) came out at 2090 nM in series [1] (setting [5]), 3650 nM in series [3] (setting [6]) and 1520 nM in series [4] (setting [7]).
On the same counts, the results for `Cc1c(C(=O)C(N)=O)c2c(OCC(=O)O)cccc2n1CCCCCCCCCCCCOc1ccc(-c2ccc(OCCCCCCCCCCCCn3c(C)c(C(=O)C(N)=O)c4c(OCC(=O)O)cccc43)cc2)cc1` [ILY-V-36, [3-Aminooxalyl-1-(12-{4′-[12-(3-aminooxalyl-4-carboxymethoxy-2-methyl-indol-1-yl)-dodecyloxy]-biphenyl-4-yloxy}-dodecyl)-2-methyl-1H-indol-4-yloxy]-acetic acid] are 440 nM, 920 nM and 1250 nM.
For `Cc1c(C(=O)C(N)=O)c2c(OC(C(=O)O)C(C)C)cccc2n1CCCCCCCCCCCCn1c(C)c(C(=O)C(N)=O)c2c(OC(C(=O)O)C(C)C)cccc21` (stereo not shown) [ILY-V-44, 2-(3-Aminooxalyl-1-{12-[3-aminooxalyl-4-(1-carboxy-2-methyl-propoxy)-2-methyl-indol-1-yl]-dodecyl}-2-methyl-1H-indol-4-yloxy)-3-methyl-butyric acid] the same measures were 50 nM, 480 nM and 280 nM.
On the same counts, the results for `Cc1c(C(=O)C(N)=O)c2c(OCC(=O)O)cccc2n1CCCCCCCCCCCCNCCCCCCCCCCCCn1c(C)c(C(=O)C(N)=O)c2c(OCC(=O)O)cccc21` [ILY-V-45, (3-Aminooxalyl-1-{12-[12-(3-aminooxalyl-4-carboxymethoxy-2-methyl-indol-1-yl)-dodecylamino]-dodecyl}-2-methyl-1H-indol-4-yloxy)-acetic acid] are 40 nM, 70 nM and 120 nM.
Regarding `Cc1c(C(=O)C(N)=O)c2c(OCC(=O)O)ccnc2n1Cc1ccccc1` [ILY-VII-1, 2-(1-Benzyl-4-yloxyacetic acid-2-methyl-1H-pyrrolo[2,3-b]pyridin-3-yl)-2-oxoacetamide], the IC50 is 60 nM in series [1] (setting [5]), 2140 nM in series [3] (setting [6]) and 13700 nM in series [4] (setting [7]).

What is called IC50 is the concentration at which inhibition is half-maximal. The bioavailability is dose-corrected exposure relative to a reference, in per cent.
